Data: US7501430B2 (ArQule, Inc., priority 2006, dated 2009)
pIC50: −log10 of the molar value. Like-named read-outs stand apart in the source and are kept apart here.

Molecular target: T1, mutant B-RAF (Homo sapiens, UniProt P15056, V600E)
T1 construct: purchased Upstate (Charlottesville, Va.)
Assay: RAF biochemical assay (MEK-1 phosphorylation, anti-phospho MEK1/2 detection)
Settings: for inhibition at 10 µM: read-out: Mutant B-RAF % inhibition
How it was run: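 Detection is by ELISA: after a 30 min room-temperature reaction, plate-captured GST-MEK-1 is probed with anti-phospho MEK1/2, then an AP-tagged secondary antibody with fluorescent Attophos read-out.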

T1 sequence (P15056 whole entry V600E): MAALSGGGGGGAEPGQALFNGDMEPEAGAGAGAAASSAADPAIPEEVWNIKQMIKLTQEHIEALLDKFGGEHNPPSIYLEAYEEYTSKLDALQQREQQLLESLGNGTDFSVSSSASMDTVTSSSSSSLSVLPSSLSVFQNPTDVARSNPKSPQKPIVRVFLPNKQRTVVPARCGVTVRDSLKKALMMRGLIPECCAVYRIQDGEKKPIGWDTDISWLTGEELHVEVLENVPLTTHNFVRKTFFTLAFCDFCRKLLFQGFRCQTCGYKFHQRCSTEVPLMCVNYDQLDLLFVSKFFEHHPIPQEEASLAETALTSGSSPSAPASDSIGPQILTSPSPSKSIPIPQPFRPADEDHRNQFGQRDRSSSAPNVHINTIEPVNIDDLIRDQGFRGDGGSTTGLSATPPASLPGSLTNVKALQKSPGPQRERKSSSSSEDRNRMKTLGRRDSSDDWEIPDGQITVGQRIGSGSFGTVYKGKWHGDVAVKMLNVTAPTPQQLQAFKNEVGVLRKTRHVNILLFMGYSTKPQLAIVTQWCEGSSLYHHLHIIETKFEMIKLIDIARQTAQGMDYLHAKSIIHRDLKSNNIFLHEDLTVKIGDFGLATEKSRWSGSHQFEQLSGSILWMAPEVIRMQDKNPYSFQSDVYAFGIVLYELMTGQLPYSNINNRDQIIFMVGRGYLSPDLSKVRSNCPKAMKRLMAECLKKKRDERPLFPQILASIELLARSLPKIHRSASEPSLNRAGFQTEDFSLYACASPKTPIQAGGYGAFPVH

SMILES | inhibition at 10 µM (@ 10 uM) [%] | pIC50 (read-out: Mutant B-RAF IC50) | other results
O=S(=O)(c1ccc(C(F)(F)F)cc1)N1CCC[C@@H](Nc2nccc(-c3c(-c4ccc(F)cc4)nc4occn34)n2)C1 [Example 58, 4-[6-(4-fluorophenyl)imi-dazo[2,1-b][1,3]oxazol-5-yl]-N-((3R)-1-{[4-(trifluoro-methyl)phenyl]sulfonyl}piperidin-3-yl)pyrimidin-2-amine] | – | – | pIC50: 6.39
Fc1ccc(-c2nc3occn3c2-c2ccnc(NC3CCNCC3)n2)c(F)c1 [Example 300, 4-[6-(2,4-difluorophenyl)imidazo[2,1-b][1,3]oxazol-5-yl]-N-piperidin-4-ylpyrimidin-2-amine] | 65 | – | –
COc1cccc(-c2nc3sccn3c2-c2ccnc(N[C@@H]3CCCN(C(=O)c4ccc(F)cc4)C3)n2)c1 [Example 108, N-[(3R)-1-(4-fluorobenzoyl)piperidin-3-yl]-4-[6-(3-methoxyphenyl)imi-dazo[2,1-b][1,3]thiazol-5-yl]pyrimidin-2-amine] | – | – | inhibition at 10 µM: 73%
O=C(c1ccccc1)N1CCC(Nc2nccc(-c3c(-c4ccc(F)cc4)nc4occn34)n2)CC1 [Example 159, N-(1-benzoylpiperidin-4-yl)-4-[6-(4-fluorophenyl)imidazo[2,1-b][1,3]oxazol-5-yl]pyrimidin-2-amine] | – | 6.00 | –
COc1ccccc1-c1nc2sccn2c1-c1ccnc(NC2CCNCC2)n1 [Example 261, 4-[6-(2-methoxyphenyl)imidazo[2,1-b][1,3]thiazol-5-yl]-N-piperidin-4-ylpyrimidin-2-amine] | – | < 5.52 | –
O=C(Nc1ccccc1)N1CCC(Nc2nccc(-c3c(-c4ccc(F)cc4)nc4occn34)n2)CC1 [Example 171, 4-({4-[6-(4-fluorophenyl)imidazo[2,1-b][1,3]oxazol-5-yl]pyrimidin-2-yl}amino)-N-phenylpiperidine-1-carboxamide] | – | 5.33 | –
O=S(=O)(c1ccccc1)N1CCC[C@@H](Nc2nccc(-c3c(-c4ccc(F)cc4)nc4occn34)n2)C1 [Example 42, 4-[6-(4-fluorophenyl)imi-dazo[2,1-b][1,3]oxazol-5-yl]-N-[(3R)-1-(phenylsulfonyl)piperidin-3-yl]pyrimidin-2-amine] | – | – | Mutant B-RAF % inhibition (@ 10 uM): 68 @ 10 uM %
CNC(=O)N1CCC(Nc2nccc(-c3c(-c4cccc(O)c4)nc4sccn34)n2)CC1 [Example 352, 4-({4-[6-(3-hydroxyphenyl)imidazo[2,1-b][1,3]thiazol-5-yl]pyrimidin-2-yl}amino)-N-methylpiperidine-1-carboxamide] | – | 6.17 | –
COc1cccc(-c2nc3sccn3c2-c2ccnc(NC3CCN(C(=O)Nc4ccc(N(C)C)cc4)CC3)n2)c1 [Example 216, N-[4-(dimethylamino)phenyl]-4-({4-[6-(3-methoxyphenyl)imidazo[2,1-b][1,3]thiazol-5-yl]pyrimidin-2-yl}amino)piperidine-1-carboxamide] | 58 | – | –
Cc1cn2c(-c3ccnc(N[C@@H]4CCCN(C(=O)Nc5ccc(N(C)C)cc5)C4)n3)c(-c3ccc(F)cc3)nc2s1 [Example 94, (3R)-N-[4-(dimethyl-amino)phenyl]-3-({4-[6-(4-fluorophenyl)-2-methylimidazo[2,1-b][1,3]thiazol-5-yl]pyrimidin-2-yl}amino)piperidine-1-carboxamide] | – | < 5.52 | –
COc1ccc(Cl)cc1S(=O)(=O)N1CCC(Nc2nccc(-c3c(-c4ccc(F)cc4)nc4occn34)n2)CC1 [Example 227, N-{1-[(5-chloro-2-methoxyphenyl)sulfonyl]piper-idin-4-yl}-4-[6-(4-fluorophenyl)imidazo[2,1-b][1,3]oxazol-5-yl]pyrimidin-2-amine] | 27 | – | –
O=S(=O)(c1ccccc1)N1CCC(Nc2nccc(-c3c(-c4ccc(F)cc4)nc4occn34)n2)CC1 [Example 197, 4-[6-(4-fluorophenyl)imidazo[2,1-b][1,3]oxazol-5-yl]-N-[1-(phenylsulfonyl)piperidin-4-yl]pyrimidin-2-amine] | – | 6.77 | –
O=C(NCc1ccco1)N1CCC(Nc2nccc(-c3c(-c4ccc(F)cc4)nc4occn34)n2)CC1 [Example 176, 4-({4-[6-(4-fluorophenyl)imidazo[2,1-b][1,3]oxazol-5-yl]pyrimidin-2-yl}amino)-N-(2-furylmethyl)piperidine-1-carboxamide] | – | 7.09 | –
COc1ccc(C(=O)N2CCC[C@@H](Nc3nccc(-c4c(-c5ccc(F)cc5)nc5occn45)n3)C2)cc1 [Example 27, 4-[6-(4-fluorophenyl)imi-dazo[2,1-b][1,3]oxazol-5-yl]-N-[(3R)-1-(4-methoxy-benzoyl)piperidin-3-yl]pyri-midin-2-amine] | – | – | pIC50: 5.31
O=C(NCCc1ccc(F)cc1)N1CCC(Nc2nccc(-c3c(-c4ccc(F)cc4)nc4occn34)n2)CC1 [Example 184, N-[2-(4-fluorophenyl)ethyl]-4-({4-[6-(4-fluorophenyl)imidazo[2,1-b][1,3]oxazol-5-yl]pyrimidin-2-yl}amino)piperidine-1-carboxamide] | – | 5.89 | –
CS(=O)(=O)N1CCC(Nc2nccc(-c3c(-c4ccccc4Cl)nc4occn34)n2)CC1 [Example 311, 4-[6-(2-chlorophenyl)imidazo[2,1-b][1,3]oxazol-5-yl]-N-[1-(methylsulfonyl)piperidin-4-yl]pyrimidin-2-amine] | 61 | – | –
O=S(=O)(c1c(F)cccc1F)N1CCC(Nc2nccc(-c3c(-c4ccc(F)cc4)nc4occn34)n2)CC1 [Example 236, N-{1-[(2,6-difluorophenyl)sulfonyl]piperidin-4-yl}-4-[6-(4-fluorophenyl)imidazo[2,1-b][1,3]oxazol-5-yl]pyrimidin-2-amine] | 30 | – | –
COCC(=O)N1CCC(Nc2nccc(-c3c(-c4ccc(F)cc4)nc4occn34)n2)CC1 [Example 163, 4-[6-(4-fluorophenyl)imidazo[2,1-b][1,3]oxazol-5-yl]-N-[1-(methoxyacetyl)piperidin-4-yl]pyrimidin-2-amine] | 53 | – | –
O=S(=O)(c1ccc(C(F)(F)F)cc1)N1CCC(Nc2nccc(-c3c(-c4ccc(F)cc4)nc4occn34)n2)CC1 [Example 239, 4-[6-(4-fluorophenyl)imidazo[2,1-b][1,3]oxazol-5-yl]-N-(1-{[4-(trifluoromethyl)phenyl]sulfonyl}piperidin-4-yl)pyrimidin-2-amine] | – | – | inhibition at 3 µM (@ 3 uM): 52%

Continued, in another order:

inhibition at 10 µM (@ 10 uM) [%] | pIC50 (read-out: Mutant B-RAF IC50) | SMILES | other results
– | 7.52 | COC(=O)c1ccc(S(=O)(=O)N2CCC[C@@H](Nc3nccc(-c4c(-c5cccc(O)c5)nc5sccn45)n3)C2)cc1 [Example 314, methyl 4-{[(3R)-3-({4-[6-(3-hydroxyphenyl)imidazo[2,1-b][1,3]thiazol-5-yl]pyrimidin-2-yl}amino)piperidin-1-yl]sulfonyl}benzoate] | –
– | 6.28 | O=C(O)c1ccc(S(=O)(=O)N2CC[C@@H](Nc3nccc(-c4c(-c5cccc(O)c5)nc5sccn45)n3)C2)cc1 [Example 282, 4-{[(3R)-3-({4-[6-(3-hydroxyphenyl)imidazo[2,1-b][1,3]thiazol-5-yl]pyrimidin-2-yl}amino)pyrrolidin-1-yl]sulfonyl}benzoic acid] | –
– | < 5.52 | O=C(O)c1ccc(-c2nc3sccn3c2-c2ccnc(N[C@@H]3CCCN(S(=O)(=O)c4ccc(Cl)cc4)C3)n2)cc1 [Example 127, 4-{5-[2-({(3R)-1-[(4-chlorophenyl)sulfonyl]piperidin-3-yl}amino)pyrimidin-4-yl]imidazo[2,1-b][1,3]thiazol-6-yl}benzoic acid] | –
– | < 5.52 | COc1ccc(C(=O)N2CCC[C@@H](Nc3nccc(-c4c(-c5cccc(OC)c5)nc5sccn45)n3)C2)cc1 [Example 83, N-[(3R)-1-(4-methoxybenzoyl)piperidin-3-yl]-4-[6-(3-methoxyphenyl)imidazo[2,1-b][1,3]thiazol-5-yl]pyrimidin-2-amine] | –
– | < 5.52 | N#Cc1cccc(-c2nc3sccn3c2-c2ccnc(N[C@@H]3CCCN(S(=O)(=O)c4ccc(C(=O)O)cc4)C3)n2)c1 [Example 129] | –
– | 8.52 | O=S(=O)(c1ccccc1)N1CCC[C@@H](Nc2nccc(-c3c(-c4cccc(O)c4)nc4sccn34)n2)C1 [Example 372, 3-[5-(2-{[(3R)-1-(phenylsulfonyl)piperidin-3-yl]amino}pyrimidin-4-yl)imidazo[2,1-b][1,3]thiazol-6-yl]phenol] | –
57 | – | O=S(=O)(c1cc(C(F)(F)F)cc(C(F)(F)F)c1)N1CCC[C@@H](Nc2nccc(-c3c(-c4ccc(F)cc4)nc4occn34)n2)C1 [Example 56, N-((3R)-1-{[3,5-bis(trifluoromethyl)phenyl]sulfonyl}piperidin-3-yl)-4-[6-(4-fluorophenyl)imidazo[2,1-b][1,3]oxazol-5-yl]pyrimidin-2-amine] | –
49 | – | COc1ccc(Cl)cc1NC(=O)N1CCC[C@@H](Nc2nccc(-c3c(-c4ccc(F)cc4)nc4occn34)n2)C1 [Example 70, (3R)-N-(5-chloro-2-methoxyphenyl)-3-({4-[6-(4-fluorophenyl)imidazo[2,1-b][1,3]oxazol-5-yl]pyrimidin-2-yl}amino)piperidine-1-carboxamide] | –
69 | – | COc1ccc(OC)c(-c2nc3sccn3c2-c2ccnc(N[C@@H]3CCCN(S(=O)(=O)c4ccc(Cl)cc4)C3)n2)c1 [Example 144, N-{(3R)-1-[(4-chlorophenyl)sulfonyl]piperidin-3-yl}-4-[6-(2,5-dimethoxyphenyl)imidazo[2,1-b][1,3]thiazol-5-yl]pyrimidin-2-amine] | –
– | 5.89 | CC(=O)c1cccc(-c2nc3sccn3c2-c2ccnc(N[C@@H]3CCCN(S(=O)(=O)c4ccc(Cl)cc4)C3)n2)c1 [Example 384, 1-(3-{5-[2-({(3R)-1-[(4-chlorophenyl)sulfonyl]piperidin-3-yl)amino)pyrimidin-4-yl]imidazo[2,1-b][1,3]thiazol-6-yl}phenyl)ethanone] | –
– | 7.62 | O=S(=O)(c1ccc(Cl)cc1)N1CCC[C@@H](Nc2nccc(-c3c(-c4ccc(O)c(O)c4)nc4sccn34)n2)C1 [Example 134, 4-{5-[2-({(3R)-1-[(4-chlorophenyl)sulfonyl]piperidin-3-yl}amino)pyrimidin-4-yl]imidazo[2,1-b][1,3]thiazol-6-yl}benzene-1,2-diol] | –
